Key:
Format in all cases: cell-based
[1] = test system: 253G4: human induced pluripotent stem cell (human iPS cell) line; assay: Culture of undifferentiated stem cell line in Orlistat-containing medium, ALP staining of living cells; settings: Orlistat 0, 2, 4, 6, 8, 10 μM, 72 hours, StemFit or mTeSR1, FIG. 3
Method: (§1) Orlistat (manufactured by Sigma, 04139) was added into StemFit medium (manufactured by AJINOMOTO) or mTeSR1 (manufactured by Stem Cell Technologies) so that each of a final concentration became concentrations as shown in FIG. 3 (2 μM, 4 μM, 6 μM, 8 μM, and 10 μM). Therefore a culture medium according to one embodiment of the present invention was obtained. The following three cell lines were cultured for 72 hours in each of a culture medium not containing Orlistat (0 μM) and the culture media containing Orlistat at each of the above final concentrations. • 253G4: human induced pluripotent stem cell (human iPS cell) line • Ffl14: human induced pluripotent stem cell (human iPS cell) line • H9: human embryonic stem cell (human ES cell) line In regard to the activity of alkaline phosphatase (ALP) that the cells have, after 72 hours of culture, AP staining was performed by color development with […] (registered trademark) alkaline phosphatase staining kit (Sigma 86-R), and cells stained red were confirmed as living cells.

[2] = test system: Ffl14: human induced pluripotent stem cell (human iPS cell) line; assay: as above; settings: Orlistat 0, 2, 4, 6, 8, 10 μM, 72 hours, StemFit or mTeSR1, FIG. 3
Method: as §1

[3] = test system: H9: human embryonic stem cell (human ES cell) line; assay: as above; settings: Orlistat 0, 2, 4, 6, 8, 10 μM, 72 hours, StemFit or mTeSR1, FIG. 3
Method: as §1

[4] = test system: undifferentiated stem cells expressing OCT4 in cell mixture of cardiomyocytes derived from human iPS cells and human iPS cells; assay: Culture of cell mixture of iPS-derived cardiomyocytes and iPS cells in Orlistat-containing medium, OCT4 immunostaining; settings: Orlistat 10 μM (Orlistat(+)); 72 hours; StemFit or mTeSR1; FIGS. 7 to 8
Method: A cell mixture in a state in which purified and refined cardiomyocytes induced from human iPS cells and human iPS cells coexisted was prepared according to the procedure described above. In the cell mixture, immunostaining against OCT4 was performed. The cell mixture was cultured for 72 hours in StemFit medium (manufactured by AJINOMOTO) or mTeSR1 (manufactured by Stem Cell Technologies) containing Orlistat at a final concentration of 10 μM (Orlistat(+)). As a control, culture was carried out in the same manner in StemFit medium (manufactured by AJINOMOTO) or mTeSR1 (manufactured by Stem Cell Technologies) not containing Orlistat (Orlistat(−)). After culturing for 72 hours, cells expressing OCT4 were detected by immunostaining. In addition, the results of DAPI staining are also shown together. The results of three replicate tests in which the number of colonies of cells expressing Oct4 was quantified based on the results are shown in FIG. 8.

[5] = test system: human iPS cell line (253G4); assay: Culture of human iPS cell line with Orlistat with or without palmitic acid, LIVE/DEAD Assay; settings: Orlistat 0, 2, 6, 8 μM, 72 hours, FIGS. 13 to 14
Method: Orlistat (manufactured by Sigma, 04139) was added into StemFit medium (manufactured by AJINOMOTO) or mTeSR1 (manufactured by Stem Cell Technologies) so that each of a final concentration became concentrations as shown in FIG. 13 (2 μM, 6 μM, and 8 μM). Therefore a culture medium according to one embodiment of the present invention was obtained. Media obtained by adding palmitic acid (final concentration 50 μM), carnitine (final concentration 0.5 mM), and BSA (final concentration 8.3 μM) to each of the culture medium (0 μM) not containing Orlistat and the culture media containing Orlistat at the above final concentrations; and media obtained by adding only carnitine (final concentration 0.5 mM) and BSA (final concentration 8.3 μM) thereto were prepared. The human iPS cell line (253G4) was cultured for 72 hours in each of the above-mentioned media. After 72 hours of culture, live cells were detected with LIVE/DEAD Assay (L3224, manufactured by Thermo Fisher Scientific).

## CCCCCCCCCCC[C@@H](C[C@@H]1OC(=O)[C@H]1CCCCCC)OC(=O)[C@H](CC(C)C)NC=O [Orlistat, N-formyl-L-leucine-(1S)-1-[[(2S,3S)-3-hexyl-4-oxo-2-oxetanyl]methyl]dodecyl ester]
[1]
  cell death of undifferentiated stem cells (ALP staining): cell death of each undifferentiated stem cell was induced in an Orlistat concentration-dependent manner
[2]
  cell death of undifferentiated stem cells (ALP staining): cell death of each undifferentiated stem cell was induced in an Orlistat concentration-dependent manner
[3]
  cell death of undifferentiated stem cells (ALP staining): cell death of each undifferentiated stem cell was induced in an Orlistat concentration-dependent manner
[4]
  residual undifferentiated stem cells expressing OCT4: no residual undifferentiated stem cells expressing OCT4 were detected
[5]; culture medium (BSA): only carnitine 0.5 mM and BSA 8.3 μM added
  cell death of human iPS cells (LIVE/DEAD Assay): cell death of human iPS cells was induced in an Orlistat concentration-dependent manner
[5]; culture medium (PA-BSA): palmitic acid 50 μM, carnitine 0.5 mM and BSA 8.3 μM added
  cell death of human iPS cells (LIVE/DEAD Assay): cell death of human iPS cells was suppressed
